In experiment [1] the test system is IL-6 in RAW264.7 cells. Description: IL-6 production, ELISA. The settings on record: 20 µM pre-treatment, 1 µg/ml LPS 24 h. Type of experiment: cell-based, mouse. As to the method: (§1) In cell culture experiments, we used RAW264.7 mouse monocyte/macrophage cell line (ECACC, Salisbury, UK; passage number: 8–15) and RAW-Blue™ cells (Invivogen, Toulouse France, passage number: 10–14). RAW264.7 and RAW-Blue™ cells were cultured in 5% CO2 at 37 °C in endotoxin-tested Dulbecco’s Modified Eagle’s Medium (high glucose, 4.5 g/L, 2 mM L-glutamine; Corning, Corning Incorporated Costar, Corning, NY) supplemented with 10% FBS. For culturing RAW-Blue™ cells, we also added 100 µg/ml normocin and 200 µg/ml zeocin to the medium. The day before the experiments, cells were plated onto 24- or 96-well plates and cultured overnight. […] The freshly synthesised tetralone derivatives were dissolved in DMSO and applied in 20 µM concentration as a pre-treatment, added 30 min before LPS induction. […]
(§2) For cytokine concentration measurements, RAW264.7 cells were cultured in 24-well plates at a density of 5*10^5 cells/well and treated with tetralones (pre-treatment, 20 µM) and with 1 µg/ml LPS for 24 h. TNF-α, IL-6 and CCL-2 levels were determined from the culturing media by using Ready-Set-Go ELISA kits (eBioscience, San Diego, CA, USA) for TNF-α and IL-6 detection and mouse CCL-2 uncoated ELISA-kit (Invitrogen, Vienna, Austria) for CCL-2 determination. ELISA-kits were applied as provided by the protocol of the manufacturer, the optical density was measured at 450 nm.

Experiment [2] deals with RAW264.7 cells. Description: ROS production in LPS-induced macrophages (DHR123). Type of experiment: cell-based, mouse. The settings on record: 20 µM pre-treatment, 1 µg/ml LPS 24 h, vs LPS-activated cells. On the procedure:
(§3) In cell culture experiments, we used RAW264.7 mouse monocyte/macrophage cell line (ECACC, Salisbury, UK; passage number: 8–15) and RAW-Blue™ cells (Invivogen, Toulouse France, passage number: 10–14). RAW264.7 and RAW-Blue™ cells were cultured in 5% CO2 at 37 °C in endotoxin-tested Dulbecco’s Modified Eagle’s Medium (high glucose, 4.5 g/L, 2 mM L-glutamine; Corning, Corning Incorporated Costar, Corning, NY) supplemented with 10% FBS. For culturing RAW-Blue™ cells, we also added 100 µg/ml normocin and 200 µg/ml zeocin to the medium. The day before the experiments, cells were plated onto 24- or 96-well plates and cultured overnight. […] The freshly synthesised tetralone derivatives were dissolved in DMSO and applied in 20 µM concentration as a pre-treatment, added 30 min before LPS induction. To exclude the effects of vehicle, both CTRL and LPS-treated cells received the same amount of DMSO.
To measure the amount of reactive oxygen species we seeded RAW264.7 cells onto 96-well plates in a density of 10^5cells/well. Cells were treated with the tetralones as a pre-treatment and they were induced with 1 µg/ml LPS for 24 h. Then 2 µM dihydrorhodamine123 (DHR123; Life Technologies, Carlsbad, CA) fluorescent dye was added and incubated for an additional 2 h. Fluorescent intensity of the dye (excitation 490 nm/emission 510–570 nm) was measured with Glomax Multi Detection System (Promega®, Madison, WI, USA).

For experiment [3], the target named is T1, recombinant human MIF (Homo sapiens, UniProt P14174).
T1 construct: purchased ATGen Co. Ltd., Seoul, Republic of Korea
T1 sequence (P14174 2-115 limits assumed): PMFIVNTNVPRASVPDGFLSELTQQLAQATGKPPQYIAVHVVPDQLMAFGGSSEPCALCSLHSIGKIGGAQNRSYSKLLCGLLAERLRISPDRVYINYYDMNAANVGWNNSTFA
Description: Tautomerase assay: enol-keto tautomeric conversion of phenylpyruvate (ketonase reaction). Type of experiment: biochemical. The settings on record: enol-keto conversion of phenylpyruvate, 100 µM substrate, pH 6.5; read-out: Inhibition of ketonase (IC50). On the procedure: The enol-keto tautomeric conversion of phenylpyruvate (ketonase reaction) was assessed at room temperature by monitoring the decrease in absorbance at 288 nm on a dual path Shimadzu 2100 UV spectrophotometer (Shimadzu, Kyoto, Japan) according to Taylor et al.[55] with minor modifications. Briefly, the 0.72 ml reaction mixture consisted of the enzyme at a final concentration of 0.4 µg/ml and the substrate in a 50 mM sodium phosphate buffer (pH = 6.5). The phenylpyruvate substrate was dissolved fresh in absolute ethanol to yield a final concentration of 100 µM. The reaction was monitored for 75 s at room temperature. A recombinant human MIF (from ATGen Co. Ltd., Seoul, Republic of Korea) was used as the enzyme source. Inhibitors were dissolved fresh in ethanol or DMSO. […] The compounds were diluted to achieve final concentrations of 200, 100, 50, 20, 5, 1, and 0.5 µM in the reaction mixture. All data presented have been derived from consonant measurements repeated at least three times. […] The areas under the curves obtained with and without the inhibitors were used to compare the conversion rates of the substrate.

Experiment [4] concerns TNF-α in RAW264.7 cells. Description: TNF-α production, ELISA. Type of experiment: cell-based, mouse. The settings on record: 20 µM pre-treatment, 1 µg/ml LPS 24 h. As to the method:
as §1, §2
On the technique in general: An ELISA detects its analyte on a solid surface through an enzyme-linked reagent.

Experiment [5] addresses T1, recombinant human MIF. Put plainly: Tautomerase assay: keto-enol tautomeric conversion of phenylpyruvate (enolase activity). The settings on record: keto-enol conversion of phenylpyruvate; read-out: Inhibition of enolase (IC50). The format is biochemical.
Experiment [6] relates to RAW264.7 cells. Put plainly: Nitrite production in LPS-induced macrophages (Griess reagent). The format is cell-based, mouse. The settings on record: 20 µM pre-treatment, 1 µg/ml LPS 24 h, vs LPS-activated cells. On the procedure:
as §3
For nitrite measurements, we applied the same culturing conditions, treatments, and equipment as described above. After 24 h of incubation, 50 µl medium was removed and added to equal amount of Griess reagent (Sigma-Aldrich, St. Louis, MO, USA) in 96-well plate. The optical density was measured at 550 nm wavelength.

The subject of experiment [7] is NF-κB activation in RAW-Blue™ cells. Description: NF-κB activation reporter assay (QUANTI-Blue). Type of experiment: cell-based, mouse. The settings on record: 20 µM pre-treatment, 1 µg/ml LPS 24 h, vs LPS-activated cells. As to the method:
as §3
The detection of NF-κB activation was accomplished by using RAW-Blue™ cells. RAW-Blue™ cells are genetically modified RAW264.7 macrophages, which are able to secrete embryonic alkaline phosphatase (EAP) upon LPS induction and following NF-κB activation. The levels of EAP can be examined using QUANTI-Blue™ detection medium.
RAW-Blue™ cells were seeded into 96-well plate at a density of 10^5cells/well. Cells were treated with tetralones (pre-treatment, 20 µM) and with 1 µg/ml LPS. 24 h after LPS treatment 20 µl medium was removed and incubated with 100 µl QUANTI-Blue™ detection medium (Invivogen; Toulouse, France) in 96-well plates. The optical density was measured at 600 nm.

Experiment [8] deals with T1, recombinant human MIF. On the set-up: method as in PMID 15778121. The settings on record: reference inhibitor; read-out: ketonase IC50 of reference inhibitor; cited from earlier work.
Experiment [9] deals with T1, recombinant human MIF. On the set-up: method as in PMID 15778121. The settings on record: reference inhibitor; read-out: enolase IC50 of reference inhibitor; cited from earlier work.

Results on 2 compounds are retold here after publication PMC8266241, “Tetralone derivatives are MIF tautomerase inhibitors and attenuate macrophage activation and amplify the hypothermic response in endotoxemic mice” (Journal of Enzyme Inhibition and Medicinal Chemistry, 2021).

Like-named read-outs stand apart in the source and are kept apart here.

Usually IC50 stands for the concentration needed to halve the response being measured. Take `COc1ccccc1/C=C1\COc2ccccc2C1=O` [Compound 32]: the “effect on IL-6 production” value in experiment [1] is “had the most dominant effect”. Moreover, the “decrease in ROS concentrations” value in experiment [2] is reported as ~20%. The IC50 amounted to 4.31 ± 1.34 µM in experiment [3] and 1260 ± 159 µM in experiment [5]. Further, the “effect on TNF-α production” value in experiment [4] is “reduced TNF-α production”. Besides, the lower nitrite concentrations in experiment [6] was ~50%. Moreover, the “effect on NF-κB activation” value in experiment [7] is recorded as “could not show any reducing effect”.

As to `O=C(O)/C=C/c1ccc(O)c(O)c1` [caffeic acid], the half-maximal inhibitory concentration (IC50) in [8] is 0.5 µM; in experiment [9], 2 µM.
